Experimental data as given in ChEMBL document CHEMBL5120778, “Jatrophane Diterpenoids with Kv1.3 Ion Channel Inhibitory Effects from Euphorbia helioscopia” (J Nat Prod, 2022).

Experiments:
[1] = molecular target: T1, Potassium voltage-gated channel subfamily A member 3 (Homo sapiens, UniProt P22001); assay: Inhibition of human Kv1.3 expressed in HEK293 cells assessed as inhibition of tetracyclin induced current at 1 uM at holding potential of -80 mV by patch clamp method relative to control; format: cell-based
HEK293 = assay: Cytotoxicity against HEK293 cells assessed as reduction in cell proliferation at 30 uM; format: toxicity, cell-based; conditions: human, hek293, 30 µM
[2] = molecular target: T1, Potassium voltage-gated channel subfamily A member 3; assay: Inhibition of human Kv1.3 expressed in HEK293 cells assessed as inhibition of tetracyclin induced current at 30 uM at holding potential of -80 mV by patch clamp method relative to control; format: cell-based
[3] = molecular target: T1, Potassium voltage-gated channel subfamily A member 3; assay: Inhibition of human Kv1.3 expressed in HEK293 cells assessed as inhibition of tetracyclin induced current at holding potential of -80 mV by patch clamp method; format: cell-based

T1 sequence (P22001 whole entry): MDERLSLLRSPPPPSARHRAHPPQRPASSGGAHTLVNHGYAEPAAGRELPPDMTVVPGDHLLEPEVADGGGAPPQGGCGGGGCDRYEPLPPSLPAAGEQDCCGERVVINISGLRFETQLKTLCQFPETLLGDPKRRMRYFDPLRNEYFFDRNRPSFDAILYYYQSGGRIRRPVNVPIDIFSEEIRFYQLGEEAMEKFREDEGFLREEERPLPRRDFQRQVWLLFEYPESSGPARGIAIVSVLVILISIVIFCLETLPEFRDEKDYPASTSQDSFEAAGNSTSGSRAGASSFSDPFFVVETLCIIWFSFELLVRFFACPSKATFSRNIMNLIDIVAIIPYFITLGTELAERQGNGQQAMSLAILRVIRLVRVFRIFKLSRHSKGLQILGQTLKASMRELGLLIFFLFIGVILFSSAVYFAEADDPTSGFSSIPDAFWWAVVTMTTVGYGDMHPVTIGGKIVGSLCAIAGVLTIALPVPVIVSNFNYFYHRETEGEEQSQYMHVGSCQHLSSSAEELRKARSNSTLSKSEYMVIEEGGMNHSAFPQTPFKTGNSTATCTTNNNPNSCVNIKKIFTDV

Which results are given for CC(=O)O[C@@H]1C[C@@H](OC(C)=O)C(C)(C)[C@H](O)[C@H]2O[C@@]3(C[C@H](C)[C@H](OC(=O)c4ccccc4)[C@@H]3/C=C/1C)[C@@H](OC(C)=O)[C@H]2C?
inhibition [1]: 21%; Activity (HEK293): Non-Toxic; inhibition [2]: 96.2%

What does the source list for CC(=O)O[C@@H]1CC(=O)/C(C)=C/[C@H]2[C@@H](OC(=O)c3ccccc3)[C@@H](C)C[C@]2(O)[C@@H](OC(C)=O)[C@@H](C)/C=C/C1(C)C?
inhibition [1]: 4.72%; Activity (HEK293): Non-Toxic; inhibition [2]: 89.4%

How did the inhibition [1] turn out when CC(=O)O[C@]12C[C@@H](C)[C@H](OC(=O)c3ccccc3)[C@@H]1/C=C(\C)[C@H](O)CC(=O)C(C)(C)/C=C/[C@@H](C)[C@H]2O was run?
Its inhibition is 13.4%.

What about the Activity (HEK293) of the same compound?
Its Activity is “Non-Toxic”.

What about the inhibition [2] of the same compound?
The inhibition was 93.9%.

Which inhibition [1] does the source give for CC(=O)O[C@@H]1[C@H](C)/C=C/C(C)(C)C(=O)C[C@@H](OC(C)=O)/C(CO)=C/[C@H]2[C@@H](OC(=O)c3ccccc3)[C@H](C)C[C@]12OC(C)=O here?
The inhibition was 5.38%.

What about the Activity (HEK293) of the same compound?
Its Activity is “Non-Toxic”.

What about the inhibition [2] of the same compound?
Its inhibition is 97.5%.

With CC(=O)O[C@@H]1C[C@@H](OC(C)=O)C(C)(C)[C@@H](O)[C@H](O)[C@H](C)[C@H](OC(C)=O)[C@@]2(O)C[C@H](C)[C@H](OC(=O)c3ccccc3)[C@@H]2/C=C/1C as the compound, how does the inhibition [1] read?
Its inhibition is 24.3%.

And the Activity (HEK293)?
Its Activity is “Non-Toxic”.

And the inhibition [2]?
Its inhibition is 95.7%.

Which results are given for CC(=O)O[C@@H]1CC(=O)C(C)(C)/C=C/[C@@H](C)[C@@H](O)[C@@]2(OC(C)=O)C[C@H](C)[C@H](OC(=O)c3ccccc3)[C@@H]2/C=C/1C?
inhibition [1]: 24.6%; Activity (HEK293): Non-Toxic; inhibition [2]: 85.4%

CC(=O)O[C@@H]1C[C@@H](O)/C(C)=C/[C@H]2[C@@H](OC(=O)c3ccccc3)[C@H](C)C[C@]2(OC(C)=O)C(=O)/C(C)=C/[C@H](O)C1(C)C was tested. Which inhibition [1] did it give?
Its inhibition is 6.06%.

And the Activity (HEK293)?
The Activity was “Non-Toxic”.

What about the inhibition [2] of the same compound?
The inhibition was 85.6%.

For CC(=O)O[C@@H]1C[C@@H](O)/C(C)=C/[C@H]2[C@@H](OC(=O)c3ccccc3)[C@@H](C)C[C@]2(OC(C)=O)C(=O)/C(C)=C/[C@H](O)C1(C)C, which inhibition [1] is on record?
The inhibition was 7.36%.

What about the Activity (HEK293) of the same compound?
Its Activity is “Non-Toxic”.

And the inhibition [2]?
The inhibition was 84.4%.

How did the inhibition [1] turn out when CC(=O)O[C@@H]1[C@H](C)[C@@H](C=C(C)C)C(=O)C[C@@H](OC(=O)c2cccnc2)/C(C)=C/[C@H]2[C@@H](OC(=O)c3ccccc3)[C@H](C)C[C@]12OC(C)=O was run?
The inhibition was 30.9%.

What about the IC50 [3] of the same compound?
Its IC50 is 6.5 µM.

What about the Activity (HEK293) of the same compound?
Its Activity is “Non-Toxic”.

What about the inhibition [2] of the same compound?
Its inhibition is 98.7%.

CC(=O)O[C@@H]1C[C@@H](OC(C)=O)C(C)(C)/C=C/[C@H](C)[C@@H](O)[C@@]2(OC(C)=O)C[C@@H](C)[C@H](OC(=O)c3ccccc3)[C@@H]2/C=C/1C was tested. Which inhibition [1] did it give?
The inhibition was 21.1%.

And the Activity (HEK293)?
Its Activity is “Non-Toxic”.

What about the inhibition [2] of the same compound?
Its inhibition is 97.4%.

Which inhibition [1] does the source give for CC(=O)O[C@@H]1[C@H](C)/C=C/C(C)(C)C(=O)C[C@@H](OC(=O)c2cccnc2)/C(C)=C/[C@H]2[C@@H](OC(=O)c3ccccc3)[C@H](C)C[C@]12OC(C)=O here?
Its inhibition is 10.5%.

And the Activity (HEK293)?
The Activity was “Non-Toxic”.

What about the inhibition [2] of the same compound?
The inhibition was 95.3%.

For CC(=O)O[C@@H]1[C@H](C)/C=C/C(C)(C)C(=O)C[C@@H](O)/C(C)=C/[C@H]2[C@@H](OC(=O)c3ccccc3)[C@H](C)C[C@]12OC(C)=O, which inhibition [1] is on record?
The inhibition was 2.38%.

What about the Activity (HEK293) of the same compound?
Its Activity is “Non-Toxic”.

And the inhibition [2]?
The inhibition was 94.6%.

Which results are given for CC(=O)O[C@]12C[C@@H](C)[C@H](OC(=O)c3ccccc3)[C@@H]1/C=C(\C)[C@H](O)CC(=O)C(C)(C)[C@@H](O)/C=C(\C)C2=O?
inhibition [1]: 5.67%; Activity (HEK293): Non-Toxic; inhibition [2]: 90.7%

Which results are given for CC(=O)O[C@]12C[C@H](C)[C@H](OC(=O)c3ccccc3)[C@@H]1/C=C(\C)[C@H](O)CC(=O)C(C)(C)C/C=C(\C)C2=O?
inhibition [1]: 4.96%; Activity (HEK293): Non-Toxic; inhibition [2]: 88.7%

CC(=O)O[C@@H]1C[C@@H](OC(C)=O)C(C)(C)[C@H](O)/C=C(\C)[C@H](OC(C)=O)[C@@]2(OC(C)=O)C[C@H](C)[C@H](OC(=O)c3ccccc3)[C@@H]2/C=C/1C was tested. Which inhibition [1] did it give?
The inhibition was 50.4%.

What about the IC50 [3] of the same compound?
Its IC50 is 0.9 µM.

What about the Activity (HEK293) of the same compound?
Its Activity is “Non-Toxic”.

What about the inhibition [2] of the same compound?
The inhibition was 93.7%.

For Fc1ccc([C@@H]2CCNC[C@H]2COc2ccc3c(c2)OCO3)cc1 [PAROXETINE], which IC50 [3] is on record?
Its IC50 is 31.9 µM.

What about the Activity (HEK293) of the same compound?
The Activity was “Non-Toxic”.

What about the inhibition [2] of the same compound?
Its inhibition is 48.1%.

CC(=O)O[C@@H]1C[C@@H](OC(C)=O)C(C)(C)/C=C/[C@H](C)[C@H](OC(C)=O)[C@@]2(O)C[C@H](C)[C@H](OC(=O)c3cccc(O)c3)[C@@H]2/C=C/1C was tested. Which inhibition [1] did it give?
Its inhibition is 6.16%.

What about the Activity (HEK293) of the same compound?
Its Activity is “Non-Toxic”.

And the inhibition [2]?
The inhibition was 74.4%.

Which inhibition [1] does the source give for CC(=O)O[C@@H]1C[C@@H](OC(C)=O)C(C)(C)/C=C/[C@H](C)[C@H](OC(C)=O)[C@@]2(O)C[C@H](C)[C@H](OC(=O)c3ccccc3)[C@@H]2/C=C/1C [EUPHORNIN] here?
The inhibition was 8.87%.

What about the Activity (HEK293) of the same compound?
Its Activity is “Non-Toxic”.

What about the inhibition [2] of the same compound?
Its inhibition is 88.7%.

What does the source list for CC(=O)O[C@@H]1[C@@H](C)/C=C/C(C)(C)[C@H](OC(C)=O)C[C@@H](OC(C)=O)/C(C)=C/[C@H]2[C@@H](OC(=O)c3ccccc3)[C@@H](C)C[C@]12OC(C)=O?
inhibition [1]: 8.34%; Activity (HEK293): Non-Toxic; inhibition [2]: 90%

CC(=O)O[C@@H]1C[C@@H](OC(C)=O)C(C)(C)[C@@H](O)/C=C(\C)C(=O)[C@@]2(OC(C)=O)C[C@H](C)[C@H](OC(=O)c3ccccc3)[C@@H]2/C=C/1C was tested. Which inhibition [1] did it give?
The inhibition was 57%.

What about the IC50 [3] of the same compound?
Its IC50 is 0.9 µM.

What about the Activity (HEK293) of the same compound?
The Activity was “Non-Toxic”.

What about the inhibition [2] of the same compound?
Its inhibition is 98.6%.

What does the source list for CC(=O)O[C@@H]1[C@@H](C)/C=C/C(C)(C)C(=O)C[C@@H](OC(C)=O)/C(CO)=C/[C@H]2[C@@H](OC(=O)c3ccccc3)[C@H](C)C[C@]12OC(C)=O?
inhibition [1]: 5.94%; Activity (HEK293): Non-Toxic; inhibition [2]: 96.9%
